# In patent US7482355B2, “Pyrimidine derivatives as modulators of chemokine receptor activity” (AstraZeneca AB, priority 2002, dated 2009):
# Biological target: T1, hrCXCR2 (Homo sapiens, UniProt P25025)
# T1 construct: expressed in transfected cells; host or cells: HEK 293 cells (ECACC No. 85120602), membranes of the highest expressing clone
# T1 sequence (P25025 1-360): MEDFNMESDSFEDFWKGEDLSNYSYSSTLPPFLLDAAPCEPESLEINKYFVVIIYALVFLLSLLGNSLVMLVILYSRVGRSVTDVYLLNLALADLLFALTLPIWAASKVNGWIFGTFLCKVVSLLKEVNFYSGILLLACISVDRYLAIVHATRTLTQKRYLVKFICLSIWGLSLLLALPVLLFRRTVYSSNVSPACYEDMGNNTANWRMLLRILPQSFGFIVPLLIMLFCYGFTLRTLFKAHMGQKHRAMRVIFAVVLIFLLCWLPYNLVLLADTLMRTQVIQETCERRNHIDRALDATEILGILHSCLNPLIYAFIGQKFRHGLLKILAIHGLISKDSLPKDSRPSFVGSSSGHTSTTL
# Assay: Ligand binding assay, [125I]IL-8 displacement from membranes of HEK 293 cells expressing hrCXCR2
# Details: [125I]IL-8 (~50 pM), HEK 293 hrCXCR2 membranes, 1.5 hours at room temperature
# Source text: [^125I]IL-8 (human, recombinant) was purchased from Amersham, U.K. with a specific activity of 2,000 Ci/mmol. All other chemicals were of analytical grade. High levels of hrCXCR2 were expressed in HEK 293 cells (human embryo kidney 293 cells ECACC No. 85120602) (Lee et al. (1992) J. Biol. Chem. 267 pp16283-16291). hrCXCR2 cDNA was amplified and cloned from human neutrophil mRNA. The DNA was cloned into PCRScript (Stratagene) and clones were identified using DNA. The coding sequence was sub-cloned into the eukauyotic expression vector RcCMV (Invitrogen). Plasmid DNA was prepared using Quiagen Megaprep 2500 and transfected into HEK 293 cells using Lipofectamine reagent (Gibco BRL). Cells of the highest expressing clone were harvested in phosphate-buffered saline containing 0.2% (w/v) ethylenediaminetetraacetic acid (EDTA) and centrifuged (200 g, 5 min.). The cell pellet was resuspended in ice cold homogenisation buffer [10 mM HEPES (pH 7.4), 1 mM dithiothreitol, 1 mM EDTA and a panel of protease inhibitors (1 mM phenyl methyl sulphonyl fluoride, 2 μg/ml soybean trypsin inhibitor, 3 mM benzamidine, 0.5 μg/ml leupeptin and 100 μg/ml bacitracin)] and the cells left to swell for 10 minutes. The cell preparation was disrupted using a hand held glass mortar/PTFE pestle homogeniser and cell membranes harvested by centrifugation (45 minutes, 100,000 g, 4° C.). The membrane preparation was stored at −70° C. in homogenisation buffer supplemented with Tyrode's salt solution (137 mM NaCl, 2.7 mM KCl, 0.4 mM NaH2PO4), 0.1% (w/v) gelatin and 10% (v/v) glycerol.
# All assays were performed in a 96-well MultiScreen 0.45 μm filtration plates (Millipore, U.K.). Each assay contained ˜50 pM [^125I]IL-8 and membranes (equivalent to ˜200,000 cells) in assay buffer [Tyrode's salt solution supplemented with 10 mM HEPES (pH 7.4), 1.8 mM CaCl2, 1 mM MgCl2, 0.125 mg/ml bacitracin and 0.1% (w/v) gelatin]. […] The backing plate was removed from the MultiScreen plate assembly, the filters dried at room temperature, punched out and then counted on a Cobra γ-counter.
row,IC50 [nM],Structure (SMILES)
1,100,"C[C@H](CO)Nc1nc(SCc2cccc(F)c2F)nc(O)c1SCc1ncon1 [Example 26, 2-[[(2,3-Difluorophenyl)methyl]thio]-6-[[(1R)-2-hydroxy-1-methylethyl]amino]-5-[(1,2,4-oxadiazol-3-ylmethyl)thio]-4-pyrimidinol]"
2,31.6,"C[C@H](CO)Nc1nc(SCc2cccc(F)c2)nc(O)c1F [Example 33, 2-[(3-fluorobenzyl)thio]-5-fluoro-6-{[(1R)-2-hydroxy-1-methylethyl]amino}pyrimidin-4-ol]"
3,794,"C[C@H](CO)Nc1cc(O)nc(SCc2cccc(Cl)c2)n1 [Example 3, 2-[(3-Chlorobenzyl)thio]-6-{[(1R)-2-hydroxy-1-methylethyl]amino}-4-pyrimidinol]"
